From US11013740B2, “Histone deacetylase 6 selective inhibitors for the treatment of cisplatin-induced peripheral neuropathy” (REGENACY PHARMACEUTICALS, LLC, priority 2015, dated 2021)

Assays:
general activity = test: Locomotor activity (LMA) test; type: in vivo, mice; conditions: in combination with cisplatin
Method: To quantify signs of cisplatin-induced pain, the von Frey test was used (see below) which measures the decrease in threshold to induce a withdrawal response to a mechanical stimulus (hyperalgesia, one of the characteristics of CIPN). To assess cisplatin-induced numbness, the adhesive removal test (ART) was used. The time it took for the mouse to have a behavioral response to the patch (i.e. shaking or attempted removal) was recorded as a measure of sensory deficit or numbness. To determine if behavioral changes were due to altered general activity or motor function, the locomotor activity (LMA) test and the rotarod test was used. For LMA mice were placed in an open-field testing cage and movement was measured for 5 minutes. For the rotarod, mice were trained for two days and then tested on the rotarod (with increasing speeds) for 5 minutes. Time on the rotarod was recorded.

[1] = system: cisplatin-induced spontaneous pain; test: Conditioned place preference test for spontaneous pain; type: in vivo, mice; conditions: cisplatin followed by two weeks of daily compound
Method: Spontaneous pain was tested using a conditioning paradigm with retigabine as the conditioned stimulus that was originally described in a rat model (Yang Q, et al. Persistent pain after spinal cord injury is maintained by primary afferent activity. The Journal of Neuroscience. 2014; 34(32):10765-9; Ahmed B, et al. Recent changes in practice of elective percutaneous coronary intervention for stable angina. Circ. Cardiovasc. Qual. Outcomes. 2011; 4(3):300-5.). Retigabine is a […] with a rapid onset of action but only brief duration (45-60 min). […] Mol. Pain. 2010; 6(49); Passmore G M, et al. KCNQ/M currents in sensory neurons: significance for pain therapy. The Journal of Neuroscience, 2003; 23(18):7227-36). Briefly, during pre-conditioning, mice were allowed to freely explore for 15 min the CPP apparatus. The CPP apparatus consisted of 2 chambers (18×20 cm, one dark, one white) connected by a 15 cm hallway (Stoelting, Wood Dale, Ill.). The time spent in the light chamber was recorded. During the conditioning phase, saline was injected intraperitoneally in the morning and the mice were then kept in the dark chamber for 20 min. Three hours later, the analgesic retigabine (#R-100, Alomone laboratory, Jerusalem, Israel) […] the mice were immediately placed in the light chamber for 20 min. Conditioning was repeated for four consecutive days. […]

Cox IV, SDHA and VDAC = test: Western blot of mitochondrial marker proteins in tibial nerves; type: in vivo; conditions: cisplatin-treated mice, 11 injections of compound
Method: Tibial nerves retrieved from the XF24 assay plate were used for western blot analysis of levels of acetylated α-tubulin and mitochondrial proteins cytochrome c oxidase subunit IV (Cox IV), succinate dehydrogenase complex subunit A (SDHA) and voltage-dependent anion channel (VDAC). Tissues were homogenized in RIPA buffer (50 mM Tris-HCl, pH 7.5, 500 mM NaCl, 2.5 mM MgCl2, 1% NP-40, 10% glycerol) containing proteinase inhibitors by sonication and 10 μg of protein was separated by SDS/PAGE and transferred to PVDF membrane for immunoblot analyses. The membranes were blocked with 5% non-fat dry milk in PBST (phosphate-buffered saline containing 0.1% Tween 20) and probed with primary antibodies recognizing acetylated lysine (Rabbit monoclonal; Abcam, Cambridge, United Kingdom), α-tubulin (Rabbit polyclonal; Cell Signaling Technology, Danvers, Mass.), Cox IV (Mouse monoclonal; Life Technologies, Carlsbad, Calif.), SDHA (Rabbit polyclonal; Cell Signaling Technology, Danvers, Mass.) and VDAC (Rabbit polyclonal; Cell Signaling Technology, Danvers, Mass.) followed by HRP-conjugated anti-mouse, anti-rabbit, or anti-β-actin antibodies (Jackson Laboratory, Bar Harbor, Me.). […] The images were acquired using ImageQuant LAS 4000 (GE Healthcare Life Sciences, Little Chalfont, United Kingdom) and densitometrically analyzed using Image J software.

rat DRG neurons = test: Mitochondrial movement in cultured DRG neurons; type: cell-based; conditions: 100 nM co-administered with cisplatin, 3 hours
Method: DRG neurons (Lonza) were cultured for 5-7 days before the mitochondrial transport assay. 24 hrs prior to chemotherapy treatment cells were infected with Bacmam 2.0, which labeled mitochondria with GFP. Cells were treated with cisplatin (20-80 μM)+/−compound 001 (100 nM) for 3 hours. Imaging was performed using Zeiss 3i system. Time lapse images were acquired every 2 seconds over the course of 2 min. Image analysis was performed using Fiji and Multiple Kymograph plugin.

O=C(NO)c1cnc(NC2(c3ccccc3)CCC(F)(F)CC2)nc1 [compound 001]
general activity (locomotor activity) (general activity): no effect on general activity | change in time spent in retigabine-paired light chamber (spontaneous pain) [1]: did not develop a preference for the retigabine-paired light chamber | Cox IV level in tibial nerve (Cox IV, SDHA and VDAC): normalized Cox IV levels in the tibial nerve | percentage of moving mitochondria in axons (mitochondrial transport) (rat DRG neurons): prevented this cisplatin-induced decrease in mitochondrial transport
